From patent US11116819B2, “Methods and compositions for mobilizing stem cells” (President and Fellows of Harvard College, priority 2013, dated 2021)
“Also recorded” adds a separate entry of the source.

What was measured:
[1] = system: long term reconstituting cells (HSPC); assay: Competitive transplantation of mobilized peripheral blood into lethally irradiated congenic recipients (incl. serial transplant); type: in vivo, mice; details: for potency of mobilization with AMD3100 compared with AMD3100 alone: AMD3100 5 mg/kg plus heparin 100 U/mouse or protamine sulfate 40 mg/kg, relative frequency of engrafted donor cells, AMD3100 alone = 1; for stem cell mobilization by the agent alone: Example 3, data not shown; for mobilization of long term reconstituting cells (PB competitive transplantation, primary recipients): wild type mice, single dose heparin 100 U/mouse added to G-CSF regimen
Protocol: Blood from animals treated with single dose AMD3100 alone (5 mg/kg) or AMD3100 plus heparin (100 U/mouse) or protamine sulfate (40 mg/kg) was used in transplantation of lethally irradiated congenic hosts and the relative frequency of engrafted donor cells is indicated. Line at 1=AMD3100 alone. Results are from 6-10 animals/group.
Hypothesizing that endogenous HSPG could be competed with by known pharmacologic HSPG, we examined whether heparin sulfate could mimic the EXT1 deletion effect on stem cell localization. Initially, this was done using a single dose of heparin sulfate (100 U/mouse) after a standard G-CSF mobilization regimen, harvesting the peripheral blood and using it to reconstitute lethally irradiated congenic recipients (FIG. 3). The primary recipients were then harvested after 4 months and used to transplant secondary lethally irradiated recipients.
For non-competitive BM transplantation, to create the chimeras described in FIG. 1a, one million whole BM cells from B6.SJL (CD45.1) mice were transplanted into lethally irradiated (9.5 Gy from a Cesium source 4-24 hours before transplantation) Ext1-loxP/loxP-Mx1cre (CD45.2) recipients six-to-eight weeks before pIpC administration. Neutrophil and platelet recovery assay was performed as previously described (Hoggatt et al., 2013). Briefly, 3 million mobilized PB mononuclear cells (MNC) from C57BL/6J (CD45.2) mice were transplanted into lethally irradiated B6.SJL (CD45.1) mice and followed up for at least 36 days. For transplantation without cytotoxic conditioning, 1, 4 or 8 million whole BM cells from B6.SJL mice were transplanted into Ext1-loxP/loxP-Mx1cre recipients three weeks after pIpC administration. For competitive transplantation of mobilized peripheral blood (PB), 150 ul of PB (CD45.2) was mixed with 2×10^5 congenic BM support cells and injected into lethally irradiated CD45.1 recipients. Cells were infused via lateral tail vein injection. Engraftment was monitored at 4-week intervals by FACS analysis.
(§1) Recombinant human G-CSF (Neupogen, Filgrastrim) was administered at 125 ug/kg of TBW every 12 hours for eight consecutive injections. Heparin Sodium (APP Pharmaceuticals) was injected i.p. at a single dose of 100 U. Hirudin was used at 40 mg/kg of TBW in a single dose. Vcam1 neutralizing antibody and the corresponding isotype control (Rat IgG2a, k) were injected intravenously at 2 mg/kg of TBW every day for three doses and PB samples were obtained through retro-orbital bleeding the day following the last injection. AMD3100 was administered subcutaneously at a single dose of 5 mg/kg TBW. PB samples were obtained through retro-orbital bleeding 3 hours after the last injection of G-CSF and 1 hour after Heparin, AMD3100, or Hirudin injection.

CD34+ cells = details: cited from earlier work
HSPC [2] = assay: HSPC mobilization in mice (background statements, GRO-β and heparin); type: in vivo; details: unlike G-CSF; data not shown
Protocol: It does so acutely, mobilizing HSPC maximally by 15 minutes post infusion in mice. […] It is an excellent candidate to serve as a niche-vacating agent. We have also recently identified a novel involvement of heparan sulfate proteoglycans […] in HSC retention in the bone marrow that can be manipulated pharmacologically to induce stem cell mobilization of cells functionally distinctive from those mobilized by G-CSF. This process is one that involves the use of heparin and AMD3100 and achieves robust mobilization using approved agents that can quickly move to clinical trial.

HSPC [3] = details: cited from earlier work
[4] = system: circulating hematopoietic stem/progenitor cells (HSPC); assay: Peripheral blood colony forming unit (CFU-C) assay of circulating progenitors after mobilization; type: in vivo, mice
Protocol: as §1
CFU assays were performed as previously described (Ferraro et al., 2011). Equal volumes of PB (50 to 200 juL depending upon the experiment) were subjected to red blood cell lysis with ammonium-chloride-potassium buffer, resuspended in 4 ml of methocult M3434 (Stem Cell Technologies), plated in 35 mm culture dishes (1 mL/dish) and cultured at 37° C. for 8 days before scoring for colony formation.

[5] = Peripheral WBC count (complete blood count) after mobilization; type: in vivo; details: C57BL/6J mice; heparin alone 100 U/mouse one hour before PB harvest, vs vehicle
Protocol: as §1
Blood counts were performed with the automatic Vetscan HM2 (Abaxis).

Vcam1 = Vcam1 protein level in CD45−Ter119−Mx1+ mesenchymal cells (flow cytometry); type: in vivo, mice; details: heparin one hour before PB harvest vs vehicle
Protocol: Immunophenotypic characterization of the hematopoietic and mesenchymal compartments was performed as previously described (Gurumurthy et al., 2010). For details see supplementary information. Vcam1 and Cxcl12 protein levels were evaluated with an anti-Vcam1-APC and an anti-Cxcl12-APC antibody respectively and the corresponding isotype controls (R&D Systems). All data collection was performed on an LSRII or FACS Aria II (Beckon Dickinson) and data analysis was performed with FlowJo (Treestar).
as §1

HSPCs = assay: Type I diabetes-induced mobilopathy model, G-CSF mobilization with PB competitive transplantation; type: in vivo, mice; details: G-CSF alone
Source text: Hematopoietic stem cell transplantation remains the gold standard curative therapy for a number of hematological disorders. However, G-CSF mobilization resistance may compromise lifesaving therapy for some individuals. We therefore evaluated whether genetic or pharmacological competitive inhibition of HSPG may facilitate G-CSF-induced HSPC egress from the BM in a murine model of Type I diabetes-induced mobilopathy (Ferraro et al., 2011). […] However, the compromised response to G-CSF was fully corrected in Type I diabetic mice lacking Ext1 expression in Mx1+ mesenchymal cells (FIG. 9K).
For non-competitive BM transplantation, to create the chimeras described in FIG. 1a, one million whole BM cells from B6.SJL (CD45.1) mice were transplanted into lethally irradiated (9.5 Gy from a Cesium source 4-24 hours before transplantation) Ext1-loxP/loxP-Mx1cre (CD45.2) recipients six-to-eight weeks before pIpC administration. Neutrophil and platelet recovery assay was performed as previously described (Hoggatt et al., 2013). Briefly, 3 million mobilized PB mononuclear cells (MNC) from C57BL/6J (CD45.2) mice were transplanted into lethally irradiated B6.SJL (CD45.1) mice and followed up for at least 36 days. […] Engraftment was monitored at 4-week intervals by FACS analysis. […]

## c1cc(CN2CCCNCCNCCCNCC2)ccc1CN1CCCNCCNCCCNCC1 [AMD3100]
[1]; AMD3100 in combination with G-CSF vs G-CSF alone
  G-CSF-induced mobilization in Ext1 deficient mice (relative PB reconstitution): augments G-CSF-induced mobilization
CD34+ cells; after Plerixafor administration
  patients reporting diarrhea or injection site reaction: approximately 33%

## GRO-β: CXCR2 agonist chemokine capable of rapidly mobilizing HSPCs
HSPC [2]
  changes in marrow morphology by immunohistochemistry: not associated with changes in marrow morphology
HSPC [3]; mice
  time of maximal HSPC mobilization post infusion: 15 min
HSPC [3]; mouse, in vivo
  engraftment potential of mobilized long term repopulating HSCs compared with G-CSF: superior engraftment potential

## heparin
[4]; C57BL/6J mice, heparin alone 100 U/mouse one hour before PB harvest, vs vehicle (PBS)
  number of circulating HSPCs as measured by CFU assays: modest, yet significant increase; also recorded: enhanced HSPC mobilization compared to vehicle
[4]; heparin plus AMD3100 vs AMD3100 alone
  AMD3100-induced mobilization (CFU) with co-administration of heparin: enhances AMD3100-induced mobilization
[1]
  potency of mobilization with AMD3100 compared with AMD3100 alone: enhance potency of mobilization compared with AMD3100 alone
  stem cell mobilization by the agent alone: Neither were sufficiently effective alone
[1]; heparin 100 U/mouse added to G-CSF regimen, vs G-CSF alone, secondary lethally irradiated recipients
  secondary engraftment / self-renewal of mobilized cells (serial transplantation): distinctly more capable at providing secondary engraftment
[1]; heparin added to G-CSF vs G-CSF alone, Ext1 mutant mice
  HSPC mobilization in Ext1 mutant (EXT1 KO) mice: loss of its effect
[1]; vs G-CSF alone
  mobilization of long term reconstituting cells (PB competitive transplantation, primary recipients): significantly enhances G-CSF induced mobilization
[1]; vs G-CSF alone, listed as heparin sulfate
  mobilization of long term reconstituting cells (PB competitive transplantation, primary recipients): additive mobilization of stem cells
[5]
  WBC counts: without a significant change
Vcam1
  Vcam1 levels in Mx1+ mesenchymal cells: does not modulate Vcam1 levels
HSPC [3]; Frenette and Weiss, 2000
  ability to induce mobilization on its own: lack the ability to induce mobilization on its own

## hirudin
[1]; hirudin 40 mg/kg single dose with G-CSF, C57BL/6J mice
  effect on G-CSF-induced HSPC mobilization (relative PB reconstitution 16 weeks post transplantation): did not impact G-CSF-induced HSPC mobilization

## protamine sulfate
[1]
  potency of mobilization with AMD3100 compared with AMD3100 alone: enhance potency of mobilization compared with AMD3100 alone
  stem cell mobilization by the agent alone: Neither were sufficiently effective alone

B1: G-CSF: Recombinant human G-CSF, hematopoietic growth factor used clinically to mobilize HSC and HPC (protein, UniProt P09919 31-207, looked up)
Granulocyte …: TPLGPASSLPQSFLLKCLEQVRKIQGDGAALQEKLVSECATYKLCHPEELVLLGHSLGIPWAPLSSCPSQALQLAGCLSQLHSGLFLYQGLLQALEGISPELGPTLDTLQLDVADFATTIWQQMEELGMAPALQPTQGAMPAFASAFQRRAGGVLVASHLQSFLEVSYRVLRHLAQP
modifications: filgrastim
notes: Recombinant human G-CSF, hematopoietic growth factor used clinically to mobilize HSC and HPC
HSPCs
  HSPC mobilization in Type I diabetic mice: failed to efficiently mobilize HSPCs
CD34+ cells; normal, healthy donors
  poor mobilization in response to G-CSF, share of normal, healthy donors: 15%
CD34+ cells; patients, G-CSF mobilization
  patients failing to mobilize an optimal CD34+ cell number for autologous transplantation: Up to 60%
